Measured values as given in US20040034019A1, “Piperazine and piperidine derivatives” (priority 2002, published 2004).

Each compound was assayed on rat embryo ventral mesencephalic cells (assay: Neuroprotection assay (NMDA neuroexcitotoxic injury, high affinity 3H-dopamine uptake)). Settings: embryonic day 15 rat VM cell culture, NMDA (100-400 μM) for 20 hours.
Type: cell-based, Sprague-Dawley rat
Text: The neuroprotective activity of the compounds of this invention may be assayed using rat embryo ventral mesencephalic cells in culture which are subsequently exposed to the glutamate receptor agonist NMDA. This assay is described in detail in the example section.
The ventral mesencephalic region was dissected out of embryonic day 15 Sprague-Dawley rat embryos (Harlan), dissociated into single cell suspension by a combination of trypsinization and trituration (Costantini et al., Neurobiol Dis., pp. 97-106 (1998). Dissociated VM cells were plated into poly-L-ornithine-coated 96-well plates at a density of 85,000 cells/well in 100 uL of DMEM supplemented with 18% heat-inactivated horse serum, 0.24% glucose, 2 mM glutamine and 50 u/ml penicillin/streptomycin and incubated in a 5% CO2 incubator. After one day in culture (DIV1), the medium was replaced with 100 μL of a defined medium (DMEM supplemented with 1× N2 cocktail (Gibco-BRL), 0.12% glucose, 2 mM glutamine, and 50 units/ml penicillin/streptomycin) containing DMSO or various concentrations of the compounds of this invention. On DIV5, neuroexcitotoxic injury was induced by the addition of various concentrations of the glutamate receptor agonist NMDA (100-400 μM). Cultures were incubated with the neurotoxin for 20 hours and the effects of neurophilin compounds were assessed using high affinity ^3H-dopamine uptake according to a procedure published by Park and Mytilineou [Brain Res., 599, pp. 83-97 (1992)].

`O=C([C@@H]1C[C@@H](c2ccccc2)CN1Cc1ccccc1)N1CCN(C(c2ccc(F)cc2)c2ccc(F)cc2)CC1` [Compound 251] and `O=C([C@@H]1[C@H](c2ccccc2)CCN1Cc1ccccc1)N1CCN(C(c2ccc(F)cc2)c2ccc(F)cc2)CC1` [Compound 253] cannot be ordered by EC50: over 0.5 µM for the first, over 0.5 µM for the second.

Going from `CCN1CC[C@@H](c2ccccc2)[C@H]1C(=O)N1CCC(Cc2ccccc2)CC1` [Compound 252] to `O=C([C@@H]1CCCN1CCc1ccccc1)N1CCC(Cc2ccc(F)cc2)CC1` [Compound 273], the EC50 falls from over 0.5 µM to under 0.1 µM.

First: CCN1CC[C@H]1C(=O)N1CCN(C(c2ccc(F)cc2)c2ccc(F)cc2)CC1 [Compound 254]
Second: O=C([C@@H]1CCCN1Cc1ccc(F)cc1)N1CCC(Cc2ccc(F)cc2)CC1 [Compound 271]
The EC50 of the first is higher: 0.1 to 0.5 µM for the first, under 0.1 µM for the second. The second is the more potent here.

First: CCN1CCC[C@H]1C(=O)N1CCC(Cc2ccc(F)cc2)CC1 [Compound 259]
Second: C=CCN1CCC[C@H]1C(=O)N1CCC(Cc2ccc(F)cc2)CC1 [Compound 263]
The EC50 of the first is higher: 0.1 to 0.5 µM for the first, under 0.1 µM for the second.

`CC(C)=CCN1CCC[C@H]1C(=O)N1CCC(Cc2ccc(F)cc2)CC1` [Compound 265] and `O=C([C@@H]1CCCN1CC1CC1)N1CCC(Cc2ccc(F)cc2)CC1` [Compound 267] cannot be ordered by EC50: under 0.1 µM for the first, under 0.1 µM for the second.

First: O=C([C@@H]1CCCN1C/C=C/c1ccccc1)N1CCC(Cc2ccc(F)cc2)CC1 [Compound 269]
Second: O=C([C@@H]1CCCN1Cc1cccc(F)c1)N1CCC(Cc2ccc(F)cc2)CC1 [Compound 279]
The EC50 of the first is higher: 0.1 to 0.5 µM for the first, under 0.1 µM for the second.

First: O=C(C1CCN(Cc2ccccc2)CC1)N1CCC(Cc2ccc(F)cc2)CC1 [Compound 272]
Second: O=C(C1CCN(CC2CC2)CC1)N1CCC(Cc2ccc(F)cc2)CC1 [Compound 278]
The EC50 of the first is higher: 0.1 to 0.5 µM for the first, under 0.1 µM for the second. The second is the more potent here.

`Cc1ccc(CN2CCC[C@H]2C(=O)N2CCC(Cc3ccc(F)cc3)CC2)cc1` [Compound 275] and `O=C([C@@H]1CCCN1Cc1ccc(F)c(F)c1)N1CCC(Cc2ccc(F)cc2)CC1` [Compound 277] cannot be ordered by EC50: under 0.1 µM for the first, under 0.1 µM for the second.
